From ChEMBL document CHEMBL3045717, “Synthesis and pharmacological properties of some novel pyrazolidine and pyrazole derivatives” (2012)

Tests used:
Assay type in all cases: functional
Conditions in all cases: read-out: DIZ
[1] = test system: Candida albicans; assay: Antifungal activity against Candida albicans at 100 ug/ml after 48 to 72 hr by agar diffusion cup-plate method
[2] = test system: Bacillus subtilis; assay: Antibacterial activity against Bacillus subtilis at 200 ug/ml after 24 hr by agar diffusion cup plate method
[3] = test system: Escherichia coli; assay: Antibacterial activity against Escherichia coli at 200 ug/ml after 24 hr by agar diffusion cup-plate method
[4] = test system: Candida albicans; assay: Antifungal activity against Candida albicans at 50 ug/ml after 48 to 72 hr by agar diffusion cup-plate method
[5] = test system: Aspergillus niger; assay: Antifungal activity against Aspergillus niger at 50 ug/ml after 48 to 72 hr by agar diffusion cup-plate method
[6] = test system: Escherichia coli; assay: Antibacterial activity against Escherichia coli at 100 ug/ml after 24 hr by agar diffusion cup-plate method
[7] = test system: Aspergillus niger; assay: Antifungal activity against Aspergillus niger at 200 ug/ml after 48 to 72 hr by agar diffusion cup-plate method
[8] = test system: Staphylococcus aureus; assay: Antibacterial activity against Staphylococcus aureus at 200 ug/ml after 24 hr by agar diffusion cup-plate method
[9] = test system: Pseudomonas aeruginosa; assay: Antibacterial activity against Pseudomonas aeruginosa at 200 ug/ml after 24 hr by agar diffusion cup-plate method
[10] = test system: Staphylococcus aureus; assay: Antibacterial activity against Staphylococcus aureus at 100 ug/ml after 24 hr by agar diffusion cup-plate method
[11] = test system: Pseudomonas aeruginosa; assay: Antibacterial activity against Pseudomonas aeruginosa at 100 ug/ml after 24 hr by agar diffusion cup-plate method
[12] = test system: Pseudomonas aeruginosa; assay: Antibacterial activity against Pseudomonas aeruginosa at 50 ug/ml after 24 hr by agar diffusion cup-plate method
[13] = test system: Escherichia coli; assay: Antibacterial activity against Escherichia coli at 50 ug/ml after 24 hr by agar diffusion cup-plate method
[14] = test system: Staphylococcus aureus; assay: Antibacterial activity against Staphylococcus aureus at 50 ug/ml after 24 hr by agar diffusion cup-plate method
[15] = test system: Bacillus subtilis; assay: Antibacterial activity against Bacillus subtilis at 50 ug/ml after 24 hr by agar diffusion cup plate method
[16] = test system: Candida albicans; assay: Antifungal activity against Candida albicans at 200 ug/ml after 48 to 72 hr by agar diffusion cup-plate method
[17] = test system: Aspergillus niger; assay: Antifungal activity against Aspergillus niger at 100 ug/ml after 48 to 72 hr by agar diffusion cup-plate method
[18] = test system: Bacillus subtilis; assay: Antibacterial activity against Bacillus subtilis at 100 ug/ml after 24 hr by agar diffusion cup plate method

SMILES	zone of inhibition at 100 µg/mL [1] [mm]	zone of inhibition at 200 µg/mL [2] [mm]	zone of inhibition at 200 µg/mL [3] [mm]	zone of inhibition at 50 µg/mL [4] [mm]	zone of inhibition at 50 µg/mL [5] [mm]	zone of inhibition at 100 µg/mL [6] [mm]	zone of inhibition at 200 µg/mL [7] [mm]	zone of inhibition at 200 µg/mL [8] [mm]	zone of inhibition at 200 µg/mL [9] [mm]	zone of inhibition at 100 µg/mL [10] [mm]	zone of inhibition at 100 µg/mL [11] [mm]	zone of inhibition at 50 µg/mL [12] [mm]	zone of inhibition at 50 µg/mL [13] [mm]	zone of inhibition at 50 µg/mL [14] [mm]	zone of inhibition at 50 µg/mL [15] [mm]	zone of inhibition at 200 µg/mL [16] [mm]	zone of inhibition at 100 µg/mL [17] [mm]	zone of inhibition at 100 µg/mL [18] [mm]
CC(=O)N1C(=O)CC(=O)N1c1ccc([N+](=O)[O-])cc1[N+](=O)[O-]	18.2	25.1	30.6	13.2	12.2	15.2	24	26.1	28	22	22.8	18.2	13.2	10	10.2	24.2	16.8	18.9
CC1=NN(c2ccc([N+](=O)[O-])cc2[N+](=O)[O-])C(=O)C1	14	12	20.4	10	12.2	16	18	24.1	22	18	16	12.2	12	14.2	10.2	20.4	14	10.1
O=C1CS/C(=N/c2ccccc2)N1Nc1ccc([N+](=O)[O-])cc1[N+](=O)[O-]	18.4	26.4	30.1	11.1	10.2	26.1	16.6	30.4	12	22.2	10.3	10.2	18.2	16.2	12	24.2	14.5	20.8
CCn1cc(C(=O)O)c(=O)c2cc(F)c(N3CCNCC3)cc21 [NORFLOXACIN]		31.3	35.5			35.4		30.4	31.1	30.4	31.1	31.1	35.4	30.4	31.3			31.3
Cc1cc(C)n(-c2ccc([N+](=O)[O-])cc2[N+](=O)[O-])n1	20	22.9	28.5	14.3	10.2	23	25	24	25	23	18.6	10.2	14.3	14	10.4	24.5	18.6	18.5
